Test results published in article PMC6181319, “Thermodynamic and computational analyses reveal the functional roles of the galloyl group of tea catechins in molecular recognition” (PLoS ONE, 2018).
Read-outs that look alike come from different tables or passages of the source. Marks after values point to notes of the source that are not given here. Values belong to the molecule of their own block, whether it stands above or below them.

Tests used:
[1] = target: T1, human serum albumin (HSA) (Homo sapiens, UniProt P02768); experiment: Isothermal titration calorimetry (ITC) of binding of catechins and analogs to HSA; parameters: purchased Sigma-Aldrich Japan (Tokyo, Japan); conditions: for change of binding affinity with addition of 0.2 M NaCl: 0.2 M NaCl versus no NaCl
Procedure: The binding of the catechins and its analogs to HSA was examined in a VP-ITC instrument (Microcal Northampton, MA). […] The data were analyzed with the Origin software (ver. 7) by means of a single-binding-site model. The thermodynamic parameters were obtained from three replicate titrations, where the dilution heats of the ligands were subtracted.

[2] = target: T1, human serum albumin (HSA); experiment: Differential scanning calorimetry (DSC), thermal stability of HSA–ligand complexes; conditions: for Tm: DSC, HSA 50 μM, ligand 500 μM, 50 mM sodium phosphate pH 6.8, HSA alone 68.6 ± 0.1; for ΔTm at 500 µM: human, pH 6.8
Procedure: The thermal stabilities of HSA and the HSA–ligand complexes were determined by differential scanning calorimetry in a VP-DSC autosampler instrument (GE Healthcare). The cell was heated from 303 to 363 K at a rate of 1 K min^−1. The concentrations of HSA and the ligands were 50 and 500 μM, respectively, in a buffer composed of 50 mM sodium phosphate (pH 6.8). The data analysis was carried out with the Origin software (ver. 7) using a two-state model.

[3] = Table 2, methylated catechin derivatives, ITC, 298 K
[4] = Table 2, methylated catechin derivatives, ITC, 298 K, 50 mM sodium phosphate pH 6.8
[5] = Table 2, methylated catechin derivatives, ITC, 298 K, 50 mM sodium phosphate pH 6.8, read-out: KD
[6] = S2 Table, NaCl 0.2 M, read-out: KD
[7] = Table 1, ITC, 298 K, 50 mM sodium phosphate pH 6.8
[8] = Table 1, ITC, 298 K, 50 mM sodium phosphate pH 6.8, HSA 50 μM, single-binding-site model
[9] = Table 1, ITC, 298 K, 50 mM sodium phosphate pH 6.8, read-out: KD

T1 sequence (P02768 25-609): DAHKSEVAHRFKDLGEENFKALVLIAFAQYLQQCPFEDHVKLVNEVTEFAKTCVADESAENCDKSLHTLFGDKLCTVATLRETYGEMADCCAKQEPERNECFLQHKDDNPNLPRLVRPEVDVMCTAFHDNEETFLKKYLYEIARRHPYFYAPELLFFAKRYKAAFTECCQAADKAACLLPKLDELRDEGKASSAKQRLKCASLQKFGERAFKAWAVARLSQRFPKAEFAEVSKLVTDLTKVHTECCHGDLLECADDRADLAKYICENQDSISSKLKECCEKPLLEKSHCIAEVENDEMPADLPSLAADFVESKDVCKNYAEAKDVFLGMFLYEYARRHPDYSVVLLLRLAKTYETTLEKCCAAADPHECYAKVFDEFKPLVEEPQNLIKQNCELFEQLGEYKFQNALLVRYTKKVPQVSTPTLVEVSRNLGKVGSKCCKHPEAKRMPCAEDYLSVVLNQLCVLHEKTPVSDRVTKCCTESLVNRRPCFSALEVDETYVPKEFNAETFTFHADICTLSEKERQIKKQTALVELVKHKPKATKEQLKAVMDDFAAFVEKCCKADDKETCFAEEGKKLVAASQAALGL

- ΔG [1, 3]: -7.9 ± 0.1 kcal/mol
- ΔH [1, 3]: -9.3 ± 0.4 kcal/mol
- −TΔS [1, 3]: 1.4 ± 0.3 kcal/mol
- N (number of binding sites) [1, 4]: 0.9 ± 0.1
- Kd [1, 5]: 1600 ± 200 nM
SMILES: COc1cc([C@H]2Oc3cc(O)cc(O)c3C[C@H]2OC(=O)c2cc(O)c(O)c(O)c2)cc(O)c1O [EGCg-3′-O-Me, (−)-Epigallocatechin-3′-O-methylether gallate]

- N ([1]; S3 Table, temperature 288 K): 1.1±0.1
- ΔG ([1]; S3 Table, temperature 288 K): -8.9 ± 0.1 kcal/mol
- ΔH ([1]; S3 Table, temperature 288 K): -5.7 ± 1.2 kcal/mol
- −TΔS ([1]; S3 Table, temperature 288 K): -3.2 ± 1.2 kcal/mol
- Kd ([1]; S3 Table, temperature 288 K, read-out: KD): 190 ± 40 nM
- N ([1]; S3 Table, temperature 293 K): 1.0±0.1
- ΔG ([1]; S3 Table, temperature 293 K): -9.3 ± 0.1 kcal/mol
- ΔH ([1]; S3 Table, temperature 293 K): -6.9 ± 1.7 kcal/mol
- −TΔS ([1]; S3 Table, temperature 293 K): -2.4 ± 1.7 kcal/mol
- Kd ([1]; S3 Table, temperature 293 K, read-out: KD): 120 ± 20 nM
- N ([1]; S3 Table, temperature 298 K): 1.0±0.1
- ΔG ([1]; S3 Table, temperature 298 K): -9.4 ± 0.1 kcal/mol
- ΔH ([1]; S3 Table, temperature 298 K): -7.4 ± 0.9 kcal/mol
- −TΔS ([1]; S3 Table, temperature 298 K): -1.9 ± 0.9 kcal/mol
- Kd ([1]; S3 Table, temperature 298 K, read-out: KD): 140 ± 20 nM
- N ([1]; S3 Table, temperature 303 K): 1.1±0.1
- ΔG ([1]; S3 Table, temperature 303 K): -9.4 ± 0.2 kcal/mol
- ΔH ([1]; S3 Table, temperature 303 K): -8.7 ± 0.5 kcal/mol
- −TΔS ([1]; S3 Table, temperature 303 K): -0.7 ± 0.4 kcal/mol
- Kd ([1]; S3 Table, temperature 303 K, read-out: KD): 160 ± 40 nM
- ΔG [1, 3]: -9.4 ± 0.1 kcal/mol
- ΔH [1, 3]: -7.9 ± 0.9 kcal/mol
- N (number of binding sites) [1, 4]: 1.0 ± 0.1
- Kd [1, 5]: 140 ± 20 nM
- Kd ([1]; human, human serum albumin (HSA) 50 µM in buffer, pH 6.8, Table 2, methylated catechin derivatives, ITC, 298 K, 50 mM sodium phosphate pH 6.8, read-out: KD): 200 nM
- ΔCp (change in heat capacity) ([1]; slope of ΔH versus temperature, 288 to 303 K): −195 cal mol^−1 K^−1
SMILES: COc1cc(C(=O)O[C@@H]2Cc3c(O)cc(O)cc3O[C@@H]2c2cc(O)c(O)c(O)c2)cc(O)c1O [EGCg-3′′-O-Me, (−)-epigallocatechin-3′′-O-methylether gallate]

- ΔG [1, 3]: -7.9 ± 0.1 kcal/mol
- ΔH [1, 3]: -7.0 ± 0.1 kcal/mol
- −TΔS [1, 3]: -0.8 ± 0.1 kcal/mol
- N (number of binding sites) [1, 4]: 0.9 ± 0.1
- Kd [1, 5]: 1700 ± 100 nM
SMILES: COc1c(O)cc([C@H]2Oc3cc(O)cc(O)c3C[C@H]2OC(=O)c2cc(O)c(O)c(O)c2)cc1O [EGCg-4′-O-Me, (−)-epigallocatechin-4′-O-methylether gallate]

- ΔG [1, 3]: -8.2 ± 0.1 kcal/mol
- ΔH [1, 3]: -9.8 ± 0.1 kcal/mol
- −TΔS [1, 3]: 1.6 ± 0.1 kcal/mol
- N (number of binding sites) [1, 4]: 1.0 ± 0.1
- Kd [1, 5]: 1000 ± 100 nM
SMILES: COc1c(O)cc(C(=O)O[C@@H]2Cc3c(O)cc(O)cc3O[C@@H]2c2cc(O)c(O)c(O)c2)cc1O [EGCg-4′′-O-Me, (−)-epigallocatechin-4′′-O-methylether gallate]

- change of binding affinity with addition of 0.2 M NaCl ([1]; ITC): increased
- Kd ([1]; S2 Table, NaCl 0 M, read-out: KD): 45700 nM
- Kd [1, 6]: 16600 nM
- ΔH/ΔG ([1]; Table 1, ITC, 298 K): 24%
- ΔG [1, 7]: -5.9 ± 0.3 kcal/mol
- ΔH [1, 7]: -1.4 ± 0.1 kcal/mol
- −TΔS [1, 7]: -4.5 ± 0.4 kcal/mol
- N (number of binding sites) [1, 8]: 1.0 ^b
- Kd [1, 9]: 46000 ± 23000 nM
SMILES: CCOC(=O)c1cc(O)c(O)c(O)c1 [EtGa, Ethyl gallate]

SMILES: Oc1cc(O)c2c(c1)O[C@@H](c1cc(O)c(O)c(O)c1)[C@H](O)C2 [GC, (−)-gallocatechin]
- Tm [2]: 69.3 ± 0.3 °C
- ΔTm at 500 µM [2]: 0.7 °C
- Kd ([1]; KD, S1 Table, ITC binding affinity listed beside Tm): 52000 ± 16000 nM
- Kd ([1]; KD, Table 1, ITC, 298 K, 50 mM sodium phosphate pH 6.8): 52000 ± 16000 nM
- ΔH/ΔG ([1]; Table 1, ITC, 298 K): 19%
- ΔG [1, 7]: -5.8 ± 0.2 kcal/mol
- ΔH [1, 7]: -1.1 ± 0.5 kcal/mol
- −TΔS [1, 7]: -4.7 ± 0.7 kcal/mol
- N (number of binding sites) [1, 8]: 1.0 ^b

SMILES: O=C(O[C@@H]1Cc2c(O)cc(O)cc2O[C@H]1c1cc(O)c(O)c(O)c1)c1cc(O)c(O)c(O)c1 [GCg, (−)-gallocatechin gallate]
- Tm [2]: 73.3 ± 0.2 °C
- ΔTm at 500 µM ([2]; human serum albumin (HSA) 50 µM in buffer): 4.6 °C
- change of binding affinity with addition of 0.2 M NaCl ([1]; ITC): decreased
- thermodynamic profile of binding (enthalpy-driven or entropy-driven) ([1]; ITC, 298 K): entropy-driven
- Kd ([1]; S1 Table, ITC binding affinity listed beside Tm, read-out: KD): 8800 ± 3400 nM
- Kd [1, 6]: 18600 nM
- ΔH/ΔG ([1]; Table 1, ITC, 298 K): 43%
- ΔG [1, 7]: -6.9 ± 0.2 kcal/mol
- ΔH [1, 7]: -3.0 ± 0.1 kcal/mol
- −TΔS [1, 7]: -3.9 ± 0.3 kcal/mol
- N (number of binding sites) [1, 8]: 1.2 ± 0.2
- Kd [1, 9]: 8800 ± 3400 nM
